These results are taken from patent US12612410B2 (CHILDREN'S HOSPITAL MEDICAL CENTER, priority 2020, dated 2026).

Common to all, as to assay type: biochemical
Settings in all cases: isolated kinase, 33P-ATP

One experiment concerns the target T1, FLT3 (Homo sapiens, UniProt P36888).
T1 sequence (P36888 27-993): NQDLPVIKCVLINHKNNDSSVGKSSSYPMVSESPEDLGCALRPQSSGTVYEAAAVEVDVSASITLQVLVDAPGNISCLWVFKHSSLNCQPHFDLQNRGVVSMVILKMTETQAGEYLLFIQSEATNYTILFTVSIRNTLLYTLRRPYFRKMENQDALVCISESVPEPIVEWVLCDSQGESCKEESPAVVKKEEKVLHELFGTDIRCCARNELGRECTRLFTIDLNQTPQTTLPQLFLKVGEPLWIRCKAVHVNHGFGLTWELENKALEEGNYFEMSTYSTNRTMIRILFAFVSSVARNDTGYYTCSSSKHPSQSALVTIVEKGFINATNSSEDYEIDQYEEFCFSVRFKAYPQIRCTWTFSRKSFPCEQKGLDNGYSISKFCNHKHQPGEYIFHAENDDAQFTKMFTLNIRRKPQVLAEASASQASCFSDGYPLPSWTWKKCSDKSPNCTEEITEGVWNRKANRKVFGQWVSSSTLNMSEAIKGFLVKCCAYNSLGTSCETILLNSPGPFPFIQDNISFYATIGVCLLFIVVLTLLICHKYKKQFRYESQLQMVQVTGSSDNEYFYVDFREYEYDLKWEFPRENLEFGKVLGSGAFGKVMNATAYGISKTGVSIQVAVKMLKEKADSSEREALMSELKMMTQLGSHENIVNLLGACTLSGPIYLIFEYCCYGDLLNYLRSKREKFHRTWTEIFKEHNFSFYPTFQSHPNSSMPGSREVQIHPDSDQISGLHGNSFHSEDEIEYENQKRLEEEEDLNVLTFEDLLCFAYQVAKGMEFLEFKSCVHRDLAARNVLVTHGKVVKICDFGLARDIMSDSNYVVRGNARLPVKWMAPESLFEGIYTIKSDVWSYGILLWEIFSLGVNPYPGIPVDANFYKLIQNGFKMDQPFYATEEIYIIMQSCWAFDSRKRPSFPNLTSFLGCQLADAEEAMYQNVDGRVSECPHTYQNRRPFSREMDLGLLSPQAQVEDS
Kind of experiment: RBC HotSpot Kinase Assay, FLT3. More on the design: purchased Reaction Biology (RBC), HotSpot kinase assay. The source says:
(§1) This assay uses the isolated kinase enzyme. This assay is very useful for determining competition of the inhibitor for ATP and/or substrates and for measuring the kinetics of enzyme inhibition. […] Unlike kinase binding assays that measure competition for ATP, the HotSpot Kinase Assay is a functional assay that measures catalytic activity; as such it measures relative functional potency regardless of the mechanism of enzyme inhibition. This assay uses the form of the various enzymes that are easiest to express, which may not necessarily be the form of the enzyme that exist in the cell. (Sometimes the carboxy terminus has been truncated to aid in expression, or, if it is a receptor kinase, the enzyme itself is isolated from the other parts of the receptor that are involved in regulating kinase activity.)
(§2) The reagent used was as follows: Base Reaction buffer; 20 mM Hepes (pH 7.5), 10 mM MgCl2, 1 mM EGTA, 0.01% Brij35, 0.02 mg/ml BSA, 0.1 mM Na3VO4, 2 mM DTT, 1% DMSO. Required cofactors were added individually to each kinase reaction.
(§3) The reaction procedure was as follows: • 1) Substrates were prepared in freshly prepared Reaction Buffer. • 2) Any required cofactors were delivered to the substrate solution above. • 3) Kinase was delivered into the substrate solution and gently mixed. • 4) Compounds were delivered in 100% DMSO into the kinase reaction mixture by Acoustic technology (Echo550; nanoliter range), followed by incubation for 20 min at room temp. • 5)^33P-ATP was delivered into the reaction mixture to initiate the reaction. • 6) The mixture was incubated for 2 hours at room temperature. • 7) Kinase activity was detected by P81 filter-binding method.

The next experiment has as its target T2, IRAK1 (Homo sapiens, UniProt P51617).
T2 construct: purchased Reaction Biology (RBC), HotSpot kinase assay
Kind of experiment: RBC HotSpot Kinase Assay, IRAK1.
Excerpt: as §1, §2, §3

For another experiment, the target named is T3, IRAK4 (Homo sapiens, UniProt Q9NWZ3).
T3 sequence (Q9NWZ3 1-460): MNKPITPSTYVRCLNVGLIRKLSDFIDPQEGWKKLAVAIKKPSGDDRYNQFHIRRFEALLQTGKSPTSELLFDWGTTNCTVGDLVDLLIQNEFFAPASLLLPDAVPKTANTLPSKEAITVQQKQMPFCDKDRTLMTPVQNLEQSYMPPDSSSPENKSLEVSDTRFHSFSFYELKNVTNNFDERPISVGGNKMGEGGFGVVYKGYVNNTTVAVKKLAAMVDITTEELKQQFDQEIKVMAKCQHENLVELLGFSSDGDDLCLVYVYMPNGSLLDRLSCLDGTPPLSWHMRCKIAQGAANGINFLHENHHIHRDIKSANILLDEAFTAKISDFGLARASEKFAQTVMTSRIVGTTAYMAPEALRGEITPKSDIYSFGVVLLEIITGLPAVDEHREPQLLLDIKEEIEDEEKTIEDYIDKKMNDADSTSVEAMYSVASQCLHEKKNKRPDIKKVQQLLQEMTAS
Kind of experiment: RBC HotSpot Kinase Assay, IRAK4. Details: purchased Reaction Biology (RBC), HotSpot kinase assay.
Excerpt: as §1, §2, §3

T2 sequence (P51617 whole entry): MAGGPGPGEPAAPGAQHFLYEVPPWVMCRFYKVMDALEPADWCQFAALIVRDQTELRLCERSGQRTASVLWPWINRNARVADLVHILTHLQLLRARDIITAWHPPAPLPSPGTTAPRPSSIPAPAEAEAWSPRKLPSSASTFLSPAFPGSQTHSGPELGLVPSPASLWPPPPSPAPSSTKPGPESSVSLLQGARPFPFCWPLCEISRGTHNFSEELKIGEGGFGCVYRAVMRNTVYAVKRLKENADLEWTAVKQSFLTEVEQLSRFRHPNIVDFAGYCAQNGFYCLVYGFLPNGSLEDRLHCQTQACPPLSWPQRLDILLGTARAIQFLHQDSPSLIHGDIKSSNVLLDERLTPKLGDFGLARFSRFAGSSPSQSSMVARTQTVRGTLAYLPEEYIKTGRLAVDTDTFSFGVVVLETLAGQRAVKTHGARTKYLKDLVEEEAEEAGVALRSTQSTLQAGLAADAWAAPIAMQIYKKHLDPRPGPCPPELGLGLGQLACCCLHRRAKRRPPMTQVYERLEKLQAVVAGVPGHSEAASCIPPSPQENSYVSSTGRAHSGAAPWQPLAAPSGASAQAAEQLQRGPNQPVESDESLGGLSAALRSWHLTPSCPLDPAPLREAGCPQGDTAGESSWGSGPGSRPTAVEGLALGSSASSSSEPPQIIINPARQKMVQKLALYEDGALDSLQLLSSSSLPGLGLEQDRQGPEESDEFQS

In general, IC50 refers to the concentration at which inhibition is half-maximal. A high value points to weaker potency in that assay. `CC1(c2cn3c(-c4cccc(N[C@H]5CNC[C@@H]5C(F)(F)F)n4)cnc3cn2)CC1` [Compound 4, 6-(6-(1-methylcyclopropyl)imidazo[1,2-a]pyrazin-3-yl)-N-((3R,4S)-4-(trifluoromethyl)pyrrolidin-3-yl)pyridin-2-amine]: the IC50 turned out to be 0.9 nM against FLT3, 451 nM on IRAK1 and 2 nM against IRAK4.

Turning to `CC1(c2cn3c(-c4cccc(N[C@H]5CCNC[C@@H]5F)n4)cnc3cn2)CC1` [Compound 6, N-((3S,4S)-3-fluoropiperidin-4-yl)-6-(6-(1-methylcyclopropyl)imidazo[1,2-a]pyrazin-3-yl)pyridin-2-amine], the results for the IC50 on FLT3, at IRAK1 and against IRAK4 were 0.6 nM, 926 nM and 86 nM, respectively.

In the case of `C[C@H]1C[C@@H](Nc2cccc(-c3cnc4cnc(C5(C)CC5)cn34)n2)CCN1` [Compound 7, 6-(6-(1-methylcyclopropyl)imidazo[1,2-a]pyrazin-3-yl)-N-((2S,4S)-2-methylpiperidin-4-yl)pyridin-2-amine], the IC50 against FLT3 came out at 1 nM; on IRAK1 it was 3280 nM; at IRAK4 it was 1020 nM.

On to `C[C@@H]1CNC[C@H](Nc2cccc(-c3cnc4cnc(C5(C(F)(F)F)CC5)cn34)n2)C1` [Compound 15, N-((3R,5S)-5-methylpiperidin-3-yl)-6-(6-(1-(trifluoromethyl)cyclopropyl)imidazo[1,2-a]pyrazin-3-yl)pyridin-2-amine], for which the IC50 against FLT3 was 3 nM; against IRAK1, 736 nM; on IRAK4, 1020 nM.

For the compound `FC(F)c1cn2c(-c3cccc(N[C@H]4CNCC45CC5)n3)cnc2cn1` [Compound 20, (R)-N-(6-(6-(difluoromethyl)imidazo[1,2-a]pyrazin-3-yl)pyridin-2-yl)-5-azaspiro[2.4]heptan-7-amine], the IC50 at FLT3 is < 0.5 nM; at IRAK1, 150 nM; at IRAK4, 2 nM.

With `C[C@H]1C[C@@H](Nc2cccc(-c3cnc4cnc(C(F)F)cn34)n2)CCN1` [Compound 22, 6-(6-(difluoromethyl)imidazo[1,2-a]pyrazin-3-yl)-N-((2S,4S)-2-methylpiperidin-4-yl)pyridin-2-amine], the IC50 at FLT3 amounted to 1 nM; against IRAK1, 474 nM; against IRAK4 it was 669 nM.

On to `FC(F)c1cn2c(-c3cccc(N[C@H]4CNCC4(F)F)n3)cnc2cn1` [Compound 23, 6-(6-(difluoromethyl)imidazo[1,2-a]pyrazin-3-yl)-N-(4,4-difluoropyrrolidin-3-yl)pyridin-2-amine], for which the IC50 was < 0.5 nM against FLT3, 185 nM against IRAK1 and 7 nM on IRAK4.

Regarding `CC1(C)CCNCC1Nc1cccc(-c2cnc3cnc(C(F)F)cn23)n1` (stereo not drawn) [Compound 24, 6-(6-(difluoromethyl)imidazo[1,2-a]pyrazin-3-yl)-N-(4,4-dimethylpiperidin-3-yl)pyridin-2-amine], the IC50 was < 0.5 nM on FLT3, 236 nM on IRAK1 and 2 nM at IRAK4.

In the case of `FC(F)c1cn2c(-c3cccc(N[C@H]4CNCCC4(F)F)n3)cnc2cn1` [Compound 26, (S)-6-(6-(difluoromethyl)imidazo[1,2-a]pyrazin-3-yl)-N-(4,4-difluoropiperidin-3-yl)pyridin-2-amine], the IC50 against FLT3 was < 0.5 nM; against IRAK1, 103 nM; against IRAK4, 0.7 nM.

For `CC(C)(O)c1cn2c(-c3cccc(N[C@@H]4CCNC4)n3)cnc2cn1` [Compound 27, (R)-2-(3-(6-(pyrrolidin-3-ylamino)pyridin-2-yl)imidazo[1,2-a]pyrazin-6-yl)propan-2-ol], the IC50 at FLT3 amounted to 0.8 nM; at IRAK1, 116 nM; against IRAK4 it was 0.9 nM.

Turning to `CC(C)(O)c1cn2c(-c3cccc(N[C@H]4CNC[C@@H](F)C4)n3)cnc2cn1` [Compound 32, 2-(3-(6-(((3R,5S)-5-fluoropiperidin-3-yl)amino)pyridin-2-yl)imidazo[1,2-a]pyrazin-6-yl)propan-2-ol], the 50% inhibitory concentration (IC50) against FLT3 is < 0.5 nM; on IRAK1, 385 nM; against IRAK4 it was 3 nM.

With `FC(F)(F)COc1cn2c(-c3cccc(N[C@@H]4CCCNC4)n3)cnc2cn1` [Compound 37, (R)-N-(piperidin-3-yl)-6-(6-(2,2,2-trifluoroethoxy)imidazo[1,2-a]pyrazin-3-yl)pyridin-2-amine], the IC50 is < 0.5 nM against FLT3, 273 nM against IRAK1 and 11 nM at IRAK4.

On to `FC(F)(F)COc1cn2c(-c3cccc(N[C@H]4CNC[C@@H]4C(F)(F)F)n3)cnc2cn1` [Compound 39, 6-(6-(2,2,2-trifluoroethoxy)imidazo[1,2-a]pyrazin-3-yl)-N-((3R,4S)-4-(trifluoromethyl)pyrrolidin-3-yl)pyridin-2-amine], for which the results for the IC50 at FLT3, at IRAK1 and against IRAK4 were < 0.5 nM, 301 nM and 8 nM, respectively.

As for `F[C@H]1CNCC[C@@H]1Nc1cccc(-c2cnc3cnc(OCC(F)(F)F)cn23)n1` [Compound 41, N-((3S,4S)-3-fluoropiperidin-4-yl)-6-(6-(2,2,2-trifluoroethoxy)imidazo[1,2-a]pyrazin-3-yl)pyridin-2-amine], the figures for the IC50 on FLT3, at IRAK1 and at IRAK4 were < 0.5 nM, 142 nM and 110 nM, respectively.

With `C[C@H]1C[C@@H](Nc2cccc(-c3cnc4cnc(OCC(F)(F)F)cn34)n2)CCN1` [Compound 42, N-((2S,4S)-2-methylpiperidin-4-yl)-6-(6-(2,2,2-trifluoroethoxy)imidazo[1,2-a]pyrazin-3-yl)pyridin-2-amine], the IC50 on FLT3 amounted to 0.6 nM; at IRAK1, 413 nM; on IRAK4 it was 339 nM.

Take `FC(F)n1cc(-c2cn3c(-c4cccc(N[C@@H]5CCCNC5)n4)cnc3cn2)cn1` [Compound 44, (R)-6-(6-(1-(difluoromethyl)-1H-pyrazol-4-yl)imidazo[1,2-a]pyrazin-3-yl)-N-(piperidin-3-yl)pyridin-2-amine]: the IC50 against FLT3 was < 0.5 nM; at IRAK1, 4280 nM; against IRAK4, 37 nM.

For the compound `c1cc(N[C@@H]2CCCNC2)nc(-c2cnc3cnc(-c4cnn(C5CC5)c4)cn23)c1` [Compound 45, (R)-6-(6-(1-cyclopropyl-1H-pyrazol-4-yl)imidazo[1,2-a]pyrazin-3-yl)-N-(piperidin-3-yl)pyridin-2-amine], the results for the IC50 against FLT3, on IRAK1 and on IRAK4 were < 0.5 nM, 1990 nM and 12 nM, respectively.

`CC(C)(O)Cn1cc(-c2cn3c(-c4cccc(N[C@@H]5CCCNC5)n4)cnc3cn2)cn1` [Compound 46, (R)-2-methyl-1-(4-(3-(6-(piperidin-3-ylamino)pyridin-2-yl)imidazo[1,2-a]pyrazin-6-yl)-1H-pyrazol-1-yl)propan-2-ol]: the half-maximal inhibitory concentration (IC50) against FLT3 is < 0.5 nM; against IRAK1, 3640 nM; against IRAK4, 8 nM.
